The source of these data is ChEMBL document CHEMBL3421625, “Discovery and optimization of novel antagonists to the human neurokinin-3 receptor for the treatment of sex-hormone disorders (Part I)” (J Med Chem, 2015).

In one data set the target is T1, Cytochrome P450 1A2 (Homo sapiens, UniProt P05177).
T1 sequence (P05177 whole entry): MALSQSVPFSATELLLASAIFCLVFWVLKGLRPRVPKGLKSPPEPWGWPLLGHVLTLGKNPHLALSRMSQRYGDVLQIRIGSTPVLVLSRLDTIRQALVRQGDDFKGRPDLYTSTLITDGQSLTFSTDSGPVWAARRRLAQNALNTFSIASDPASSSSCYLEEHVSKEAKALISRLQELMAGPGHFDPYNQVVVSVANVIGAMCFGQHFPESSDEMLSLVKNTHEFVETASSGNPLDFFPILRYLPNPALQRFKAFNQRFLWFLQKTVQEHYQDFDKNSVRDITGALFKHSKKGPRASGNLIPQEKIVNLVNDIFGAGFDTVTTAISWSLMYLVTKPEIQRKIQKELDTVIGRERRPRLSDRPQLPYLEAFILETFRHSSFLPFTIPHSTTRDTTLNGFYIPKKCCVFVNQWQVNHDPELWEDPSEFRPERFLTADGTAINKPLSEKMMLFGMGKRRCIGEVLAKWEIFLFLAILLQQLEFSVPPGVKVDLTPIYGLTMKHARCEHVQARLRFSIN
As to the kind of experiment: Inhibition of CYP1A2 (unknown origin) by luciferase reporter assay in presence of NADPH regeneration system. It counts as ADME.

The next data set addresses Cytochrome P450 2C19 (Homo sapiens, UniProt P33261). As to the kind of experiment: Inhibition of CYP2C19 (unknown origin) by luciferase reporter assay in presence of NADPH regeneration system. In general terms: In a reporter assay the amount or activity of a reporter protein is the signal.
Another data set concerns the target Cytochrome P450 2D6 (Homo sapiens, UniProt P10635). As to the kind of experiment: Inhibition of CYP2D6 (unknown origin) by luciferase reporter assay in presence of NADPH regeneration system. The class given is ADME.
Data set [1] is described as follows: Fraction unbound in rat plasma at 5 uM after 4 hrs by equilibrium dialysis method. The class given is ADME, cell-free. In general terms: In equilibrium dialysis only unbound substance equilibrates across the membrane.
Data set [2] in a line: Solubility of the compound in PBS buffer at pH 7.4 by shake-flask method. The class given is physicochemical.
Data set [3] in a line: Total systemic clearance in Sprague-Dawley rat at 1 mg/kg, iv by LC-MS/MS analysis. The class given is ADME, organism-based. Also on record: dose 1 mg/kg, route intravenous. Particulars: in vivo.
Data set [4] deals with T2, Gonadotropin-releasing hormone receptor (Homo sapiens) (UniProt P30968).
T2 sequence (whole entry): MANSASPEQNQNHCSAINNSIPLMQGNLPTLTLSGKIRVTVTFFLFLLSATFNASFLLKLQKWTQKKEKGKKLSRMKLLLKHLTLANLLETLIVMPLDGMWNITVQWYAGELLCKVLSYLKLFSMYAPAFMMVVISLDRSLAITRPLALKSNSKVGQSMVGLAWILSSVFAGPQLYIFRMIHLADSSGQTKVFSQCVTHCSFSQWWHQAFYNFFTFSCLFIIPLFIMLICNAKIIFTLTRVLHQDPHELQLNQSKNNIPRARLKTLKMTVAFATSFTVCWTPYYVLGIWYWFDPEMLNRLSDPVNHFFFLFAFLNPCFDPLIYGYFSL
As to the kind of experiment: Inhibition of GnRH-R (unknown origin) at 10 uM relative to control.

Data set [5] can be described thus: Lipophilicity, log D of the compound at pH 7.4. It counts as physicochemical. Particulars: buffer.
Data set [6] in a line: Ratio of unbound drug level in brain to plasma in Sprague-Dawley rat at 1 mg/kg, iv measured at 60 mins. Particulars: brain and plasma.
Data set [7] is described as follows: in vivo. Particulars: Sprague-Dawley, rat, po, 3 mg/kg.
The nature of data set [8]: Ratio of unbound drug level in brain to plasma in Sprague-Dawley rat at 1 mg/kg, iv measured at 10 mins. Particulars: brain and plasma.
Data set [9] can be described thus: in vivo. Particulars: Sprague-Dawley, rat, iv, 1 mg/kg.
Description: Volume of distribution at steady state in Sprague-Dawley rat at 1 mg/kg, iv by LC-MS/MS analysis
In data set [10] the test system is Rattus norvegicus. Briefly: Unbound AUC in Sprague-Dawley rat at 1 mg/kg, iv by LC-MS/MS analysis. The class given is ADME, organism-based. Also on record: dose 1 mg/kg, route intravenous. Particulars: in vivo.
Data set [11] concerns Rattus norvegicus. As to the kind of experiment: Unbound Cmax in Sprague-Dawley rat at 3 mg/kg, po by LC-MS/MS analysis. Also on record: dose 3 mg/kg, route oral. Particulars: in vivo. It counts as ADME, organism-based.
A short description of data set [12]: Fraction unbound in rat brain at 5 uM after 4 hrs by equilibrium dialysis method. It counts as ADME, tissue-based.
The target of another data set is Cytochrome P450 2C9 (Homo sapiens, UniProt P11712). Briefly: Inhibition of CYP2C9 (unknown origin) by luciferase reporter assay in presence of NADPH regeneration system. It counts as ADME.
Chain of Cytochrome P450 2C9 (P11712 whole entry): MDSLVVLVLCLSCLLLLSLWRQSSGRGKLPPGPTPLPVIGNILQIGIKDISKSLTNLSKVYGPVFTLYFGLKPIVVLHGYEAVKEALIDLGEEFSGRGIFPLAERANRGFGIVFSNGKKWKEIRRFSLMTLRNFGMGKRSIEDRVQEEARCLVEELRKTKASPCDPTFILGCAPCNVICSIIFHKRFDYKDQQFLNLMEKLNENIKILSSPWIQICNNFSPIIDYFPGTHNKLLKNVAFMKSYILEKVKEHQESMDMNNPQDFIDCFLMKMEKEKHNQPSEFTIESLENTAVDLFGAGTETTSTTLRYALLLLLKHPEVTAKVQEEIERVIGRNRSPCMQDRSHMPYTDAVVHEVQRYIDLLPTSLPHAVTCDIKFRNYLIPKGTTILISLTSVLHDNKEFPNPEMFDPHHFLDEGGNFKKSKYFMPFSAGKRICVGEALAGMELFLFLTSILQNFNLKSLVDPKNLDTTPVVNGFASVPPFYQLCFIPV
In a further data set the target is T3, NK-3 receptor (Macaca mulatta, UniProt Q2WGM0).
T3 sequence (Q2WGM0 whole entry): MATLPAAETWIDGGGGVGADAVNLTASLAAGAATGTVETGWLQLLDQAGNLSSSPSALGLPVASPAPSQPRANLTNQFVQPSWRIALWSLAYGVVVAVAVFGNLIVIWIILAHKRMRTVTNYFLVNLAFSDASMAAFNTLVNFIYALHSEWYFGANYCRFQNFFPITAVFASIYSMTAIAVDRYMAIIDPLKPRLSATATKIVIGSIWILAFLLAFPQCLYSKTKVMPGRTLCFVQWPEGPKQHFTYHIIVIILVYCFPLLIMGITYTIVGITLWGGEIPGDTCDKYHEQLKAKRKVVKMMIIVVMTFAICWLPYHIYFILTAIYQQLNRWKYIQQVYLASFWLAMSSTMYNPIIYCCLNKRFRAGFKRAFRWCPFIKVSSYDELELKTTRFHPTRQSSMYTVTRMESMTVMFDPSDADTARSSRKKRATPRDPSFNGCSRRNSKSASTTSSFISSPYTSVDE

The next data set deals with T4, Neuromedin-K receptor (Rattus norvegicus, UniProt P16177).
T4 sequence (P16177 whole entry): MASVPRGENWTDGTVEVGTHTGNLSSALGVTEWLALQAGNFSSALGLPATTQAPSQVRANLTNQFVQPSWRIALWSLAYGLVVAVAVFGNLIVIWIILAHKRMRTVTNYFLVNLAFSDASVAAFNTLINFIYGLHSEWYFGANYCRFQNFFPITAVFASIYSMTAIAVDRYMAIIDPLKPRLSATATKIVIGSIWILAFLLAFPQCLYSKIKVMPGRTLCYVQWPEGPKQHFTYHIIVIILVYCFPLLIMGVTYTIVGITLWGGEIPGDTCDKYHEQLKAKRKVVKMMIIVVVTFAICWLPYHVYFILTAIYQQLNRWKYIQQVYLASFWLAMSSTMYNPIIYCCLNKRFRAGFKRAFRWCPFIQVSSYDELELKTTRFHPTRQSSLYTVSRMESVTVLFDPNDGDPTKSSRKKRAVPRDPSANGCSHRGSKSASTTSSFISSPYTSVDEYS

For data set [13], the system named is Rattus norvegicus. As to the kind of experiment: Unbound AUC in Sprague-Dawley rat at 3 mg/kg, po by LC-MS/MS analysis. Particulars: in vivo. Also on record: dose 3 mg/kg, route oral. It counts as ADME, organism-based.
Another data set addresses Cytochrome P450 3A4 (Homo sapiens, UniProt P08684). As to the kind of experiment: Inhibition of CYP3A4 (unknown origin) by luciferase reporter assay in presence of NADPH regeneration system. It counts as ADME.
Another data set relates to Cynomolgus monkey. As to the kind of experiment: In vivo inhibition of NK3R in castrated cynomolgus monkey assessed as decrease in plasma luteinizing hormone level at 20 mg/kg, po measured at 90 mins relative to control. The class given is functional. Particulars: Macaca fascicularis, 1.5 h.
The nature of data set [14]: Tmax in castrated cynomolgus monkey at 5 mg/kg, po by LC-MS/MS analysis. The class given is ADME, organism-based, Macaca fascicularis. Also on record: dose 5 mg/kg, route oral. Particulars: male, in vivo.

The structures appear in SMILES notation. ≈ marks a conversion by molar mass, not a printed value.

Chain of Cytochrome P450 3A4 (P08684 whole entry): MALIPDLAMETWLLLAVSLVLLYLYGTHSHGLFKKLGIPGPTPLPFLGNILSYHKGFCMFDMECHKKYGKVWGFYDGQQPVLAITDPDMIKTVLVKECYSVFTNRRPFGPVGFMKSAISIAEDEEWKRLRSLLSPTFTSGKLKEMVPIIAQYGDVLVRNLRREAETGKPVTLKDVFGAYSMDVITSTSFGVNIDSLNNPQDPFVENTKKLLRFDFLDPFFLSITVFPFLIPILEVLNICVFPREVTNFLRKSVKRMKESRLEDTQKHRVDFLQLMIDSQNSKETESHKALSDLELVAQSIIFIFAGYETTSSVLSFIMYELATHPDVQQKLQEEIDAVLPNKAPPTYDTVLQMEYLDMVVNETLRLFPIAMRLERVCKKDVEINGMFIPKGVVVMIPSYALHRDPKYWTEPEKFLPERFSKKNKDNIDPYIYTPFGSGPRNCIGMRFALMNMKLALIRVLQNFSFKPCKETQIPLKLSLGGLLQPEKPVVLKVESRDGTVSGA
Chain of Cytochrome P450 2C19 (P33261 whole entry): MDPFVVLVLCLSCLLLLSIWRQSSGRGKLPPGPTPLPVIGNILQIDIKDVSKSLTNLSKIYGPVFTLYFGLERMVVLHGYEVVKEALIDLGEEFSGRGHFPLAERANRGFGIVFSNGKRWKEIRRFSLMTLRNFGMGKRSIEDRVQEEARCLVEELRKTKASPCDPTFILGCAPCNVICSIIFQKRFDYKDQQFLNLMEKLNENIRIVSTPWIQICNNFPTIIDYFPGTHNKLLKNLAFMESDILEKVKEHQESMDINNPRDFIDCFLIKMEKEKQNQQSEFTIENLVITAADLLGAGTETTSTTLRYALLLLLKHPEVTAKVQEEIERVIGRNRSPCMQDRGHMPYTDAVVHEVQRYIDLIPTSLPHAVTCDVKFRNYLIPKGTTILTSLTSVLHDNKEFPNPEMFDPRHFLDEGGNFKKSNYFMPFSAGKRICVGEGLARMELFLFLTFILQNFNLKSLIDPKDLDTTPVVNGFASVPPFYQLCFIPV
Chain of Cytochrome P450 2D6 (P10635 whole entry): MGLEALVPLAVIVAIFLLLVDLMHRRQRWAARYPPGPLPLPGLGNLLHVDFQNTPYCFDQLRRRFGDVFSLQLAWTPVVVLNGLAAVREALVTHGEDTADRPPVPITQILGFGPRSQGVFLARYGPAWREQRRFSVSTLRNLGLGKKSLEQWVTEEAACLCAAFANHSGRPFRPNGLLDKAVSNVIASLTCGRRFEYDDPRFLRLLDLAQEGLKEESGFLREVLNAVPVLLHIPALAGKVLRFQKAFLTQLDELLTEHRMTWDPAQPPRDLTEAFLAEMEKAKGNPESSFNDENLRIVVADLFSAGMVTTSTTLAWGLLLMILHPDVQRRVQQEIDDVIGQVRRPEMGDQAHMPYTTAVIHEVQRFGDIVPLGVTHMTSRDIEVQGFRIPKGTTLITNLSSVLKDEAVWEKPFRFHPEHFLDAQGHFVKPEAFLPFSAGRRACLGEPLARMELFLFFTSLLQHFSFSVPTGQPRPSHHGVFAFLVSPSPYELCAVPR
Description for NK-3 receptor: Displacement of [3H]-SB222200 from monkey NK3R after 90 mins by scintillation counting analysis
Description for Neuromedin-K receptor: Displacement of [3H]-SB222200 from rat NK3R after 90 mins by scintillation counting analysis

In general, IC50 refers to the midpoint of a concentration-inhibition curve. In general, fraction unbound refers to the share of the substance not bound to proteins or other matrix. Broadly, the thermodynamic solubility is solubility found after equilibrating the solid with the medium. As a reminder, the clearance is a measure of how efficiently the substance is removed, as volume per time. Usually inhibition stands for the share of the control response that was lost under treatment. Broadly, the logD is the decadic logarithm of the distribution of all forms, ionised or not, between an organic phase and buffer at a given pH. For orientation: Tmax means the time from dosing to the highest level. The term Vd denotes the apparent volume that relates the amount in the body to the concentration in plasma or blood. Usually Ki stands for a dissociation constant, usually derived from enzyme kinetics or from competition with a known ligand. For the molecule `C[C@@H]1c2nnc(-c3csc(-c4ccc(F)cc4F)n3)n2CCN1C(=O)c1ccc(-c2cccs2)cc1`, the IC50 was found to be 21 µM at Cytochrome P450 1A2; 4 µM at Cytochrome P450 2C19; 7 µM at Cytochrome P450 2D6; 3 µM on Cytochrome P450 2C9; 19 µM at Cytochrome P450 3A4. Also, the fraction unbound at 4 h, 5 µM in data set [1] worked out at 0.0008; in [12] it was 0.001. The molecule also came in with a solubility (thermodynamic) in data set [2] of 0.4 µM (≈ 0.208 µg/mL). This molecule also had a clearance in data set [3] of 8.9 mL/min/kg. The inhibition in data set [4] worked out at 35%. In [5], this molecule displayed a pH-dependent lipophilicity (logD) of 5. Further, the Kp uu at 1 h in [6] was 2.5. The Tmax in “in vivo [7]” was 45 min. Besides, in data set [8], the Kp uu at 10 min stood at 1.9. The molecule also showed a distribution volume (Vd) in the data set “in vivo [9]” of 4.1 L/kg. The fAUC with Rattus norvegicus [10] turned out to be 0.2 µM·min; with Rattus norvegicus [13], 0.1 µM·min. This molecule came in with a fCmax with Rattus norvegicus [11] of 0.14 nM. Also, the inhibition constant Ki on NK-3 receptor is 0.00398 µM; at Neuromedin-K receptor, 0.013 µM.
Usually inhibition in vivo stands for the relative decrease from the control value, in per cent. Regarding `Cc1nc(-c2nnc3n2CCN(C(=O)c2ccc(-c4cccs4)cc2)[C@@H]3C)cs1`, the IC50 is 26 µM on Cytochrome P450 1A2; 34 µM on Cytochrome P450 2C19; over 100 µM at Cytochrome P450 2D6; 21 µM on Cytochrome P450 2C9; 50 µM at Cytochrome P450 3A4. In the data set on Cynomolgus monkey, the inhibition in vivo at 20 mg/kg was determined as 40%. Besides, the fraction unbound at 4 h, 5 µM is 0.055 in data set [1] and 0.028 in [12]. This molecule also came in with a solubility (thermodynamic) in [2] of 118 µM (≈ 49.7 µg/mL). Also, the clearance in data set [3] came to 7.4 mL/min/kg. The same molecule displayed an inhibition in [4] of 30%. For the same molecule, in [5] (read-out: logD), the logD turned out to be 3.1. Further, the Kp uu at 1 h in data set [6] was 0.1. Also, the time of peak concentration (Tmax) was 90 min in data set [14] and 45 min in the data set “in vivo [7]”. The Kp uu at 10 min in [8] came out at 0.2. In “in vivo [9]”, this molecule displayed a Vd of 1.4 L/kg. Also, the fAUC in the data set with Rattus norvegicus [10] came to 16.9 µM·min; with Rattus norvegicus [13] it was 60.3 µM·min. The fCmax in the data set with Rattus norvegicus [11] is given as 443 nM. The inhibition constant (Ki) at NK-3 receptor was 0.02 µM; at Neuromedin-K receptor it was 0.076 µM.
